Source: patent US7649012B2, “Compounds, pharmaceutical compositions containing same, and methods of use for same” (FASgen, Inc., priority 2002, dated 2010)
In brackets after ≈: the same amount, converted by molar mass. Blank lines part the entries; values can stand above or below the compound they belong to.

Columns and labels:
[1] = test system: Staphylococcus aureus (ATCC # 29213); experiment: Broth microdilution MIC; type: cell-based; details: Staphylococcus aureus, ATCC29213; Trypticase Soy Broth; read-out: SA/Tsoy(MIC)
Experimental: (§1) A broth microdilution assay is used to assess the antimicrobial activity of the compounds. […] Microorganisms tested include Staphylococcus aureus (ATCC # 29213), Enterococcus faecalis (ATCC # 29212), Pseudomonas aeruginosa (ATCC # 27853), and Escherichia coli (ATCC # 25922). The assay is performed in two growth media, Mueller Hinton Broth and Trypticase Soy Broth. […] Colonies are suspended in sterile broth so that the turbidity matches the turbidity of a 0.5 McFarland standard. The inoculum is diluted 1:10 in sterile broth (Mueller Hinton or Trypticase soy) and 195 ul is dispensed per well of a 96-well plate. The compounds to be tested, dissolved in DMSO, are added to the wells in 5 ul volume at the following concentrations: 25, 12.5, 6.25, 3.125, 1.56 and 0.78 ug/ml in duplicate. Additional concentrations are tested if required. 5 ul of DMSO added to duplicate wells are the vehicle control. Serial dilutions of positive control compounds, vancomycin (E. faecalis and S. aureus) and tobramycin (E. coli and P. aeruginosa), are included in each run. After 24 hours of incubation at 37° C., plates are read at OD600 on a Molecular Devices SpectraMax Plus Spectrophotometer. Average OD600 values are computed using SOFTmax Pro Software (Molecular Devices) and MIC values are determined by linear regression analysis using Prism version 3.02 (Graph Pad Software, San Diego).

[2] = test system: Pseudomonas aeruginosa (ATCC # 27853); experiment: Broth microdilution MIC; type: cell-based
Experimental: as §1

[3] = target: rat liver acyl-CoA synthetase; details: read-out: 50% inhibition of rat liver acyl-CoA synthetase; cited from earlier work
[4] = test system: Raji cells; details: cited from earlier work
[5] = target: viral HIV protease (Human immunodeficiency virus type 1 group M subtype B, UniProt P04585); details: cited from earlier work
[6] = test system: MCF-7 human breast cancer cells; experiment: Crystal violet cell growth assay; type: cell-based; details: MCF7, MCF-7, 72 hours, read-out: Cr. Violet(IC50)
Experimental: The crystal violet assay measure cell growth but not cytotoxicity. This assay employs crystal violet staining of fixed cells in 96-well plates with subsequent solubilization and measurement of OD490 on a spectrophotometer. The OD490 corresponds to cell growth per unit time measured. Cells are treated with the compounds of interest or vehicle controls and IC50 for each compound is computed.
To measure the cytotoxicity of specific compounds against cancer cells, 5×10^4 MCF-7 human breast cancer cells, obtained from the American Type Culture Collection are plated per well in 24 well plates in DMEM medium with 10% fetal bovine serum, penicillin, and streptomycin. Following overnight culture at 37° C. and 5% CO2, the compounds to be tested, dissolved in DMSO, are added to the wells in 1 μl volume at the following concentrations: 50, 40, 30, 20, and 10 μg/ml in triplicate. Additional concentrations are tested if required. 1 μl of DMSO is added to triplicate wells are the vehicle control. C75 is run at 10, and 5 μg/ml in triplicate as positive controls.
After 72 hours of incubation, cells are stained with 0.5 ml of Crystal Violet stain (0.5% in 25% methanol) in each well. After 10 minutes, wells are rinsed, air dried, and then solubilized with 0.5 ml 10% sodium dodecylsulfate with shaking for 2 hours.

[7] = test system: MCF-7 human breast cancer cells; experiment: [14C]acetate incorporation into total lipids; type: cell-based; details: [14C]acetate incorporation into lipids
Experimental: This assay measures the incorporation of [^14C]acetate into total lipids and is a measure of fatty acid synthesis pathway activity in vitro. It is utilized to measure inhibition of fatty acid synthesis in vitro.
MCF-7 human breast cancer cells cultured as above, are plated at 5×10^4 cells per well in 24-well plates. […] DMSO is added to triplicate wells for a vehicle control. C75 is run at 5 and 10 μg/ml in triplicate as positive controls. After 4 hours of incubation, 0.25 μCi of [^14C]acetate (10 μl volume) is added to each well.
After 2 hours of additional incubation, medium is aspirated from the wells and 800 μl of chloroform:methanol (2:1) and 700 μl of 4 mM MgCl2 is added to each well. Contents of each well are transferred to 1.5 Eppendorf tubes, and spun at full-speed for 2 minutes in a high-speed Eppendorf Microcentrifuge 5415D. After removal of the aqueous (upper) layer, an additional 700 μl of chloroform:methanol (2:1) and 500 μl of 4 mM MgCl2 are added to each tube and then centrifuged for 1 minutes as above. The aqueous layer is removed with a Pasteur pipette and discarded. An additional 400 μl of chloroform:methanol (2:1) and 200 μl of 4 mM MgCl2 are added to each tube, then centrifuged and aqueous layer is discarded. The lower (organic) phase is transferred into a scintillation vial and dried at 40° C. under N2 gas. Once dried, 3 ml of scintillant (APB #NBC5104) is added and vials are counted for ^14C. The Beckman Scintillation counter calculates the average cpm values for triplicates.
The IC50 for the compounds is defined as the concentration of drug leading to a 50% reduction in [^14C]acetate incorporation into lipids compared to controls. […] The average cpm values are computed by the Beckman scintillation counter (Model LS6500) for each compound concentration. Computation of linear regression, best-fit line, r^2, and 95% confidence intervals are calculated using Prism Version 3.0 (Graph Pad Software).

MIC [1]: 23 µg/mL (≈ 76.6 µM)
PSAE/MH(MIC) ([2]; Mueller Hinton Broth): Neg
PSAE/Tsoy(MIC) ([2]; Trypticase Soy Broth): Neg
Compound: CCCCCCCC[C@@]1(C)SC(=O)C(C(=O)OC)=C1O (racemic)

Compound: CCCC=CCC=CC=CC=NN=NO [Triacsin C, 1-hydroxy-3-(E, E, E-2′,4′,7′-undecatrienylidine) triazene]
IC50 [3]: 8.7 µM
concentration causing growth inhibition in Raji cells [4]: 1.0 µM

Compound: C/C=C/C/C=C/CCC(=O)[C@H]1O[C@H]1C(N)=O [cerulenin, (2S,3R)-2,3-epoxy-4-oxo-7,10 dodecadienoyl amide]
concentration for inhibition of viral HIV protease [5]: 5 mg/mL

IC50 [6]: 15.1 µg/mL (≈ 50.9 µM)
14C(IC50) [7]: Neg
Compound: C=CCOC1=C(C)C(=O)S[C@]1(C)CCCCCCCC (racemic)
